Article PMC5329948, “Caspase vinyl sulfone small molecule inhibitors prevent axonal degeneration in human neurons and reverse cognitive impairment in Caspase-6-overexpressing mice” (Molecular Neurodegeneration, 2017)

Biological target: T1, Casp6 in Casp6-transfected HCT116 cells (Homo sapiens, UniProt P55212)
T1 construct: The mammalian constructs encoding human Casp6p20p10 in the pCep4β vector; expressed in transfected cells; host or cells: HCT116 human colon carcinoma cells
T1 sequence (P55212 24-179): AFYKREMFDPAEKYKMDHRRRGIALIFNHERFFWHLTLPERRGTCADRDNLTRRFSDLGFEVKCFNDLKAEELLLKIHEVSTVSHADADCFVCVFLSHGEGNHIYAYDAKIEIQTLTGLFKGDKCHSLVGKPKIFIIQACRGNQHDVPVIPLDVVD
T1 sequence (P55212 194-293): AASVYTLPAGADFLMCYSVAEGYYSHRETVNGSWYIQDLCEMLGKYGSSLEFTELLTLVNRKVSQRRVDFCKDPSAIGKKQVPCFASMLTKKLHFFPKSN
Experiment: Casp6 VEIDase activity in extracts of Casp6p20p10-transfected HCT116 cells treated with inhibitor
Assay type: cell-based
Details: for Casp6 activity rise within 15 min of inhibitor removal / activity at 100 µM: 100 μM for 2 h, mean ± SEM; for Casp6 activity rise within 15 min of inhibitor removal: then fresh media 15 min; for decrease of Casp6 VEIDase activity within 15 min of treatment / decrease of Casp6 activity: 100 μM, Casp6-transfected HCT116; for decrease of Casp6 activity: 2 h; for activity at 100 µM: HCT-116, then fresh media 2 h, % of initial activity, read-out: Casp6 activity recovered 2 h after inhibitor removal; for IC50: cells treated for 2 h, read-out: IC50 on Casp6 activity in pCep4β-Casp6p20p10-transfected HCT116 cells
Procedure: HCT116: Human colon carcinoma (HCT116) cells (ATCC, Manassas, VA, USA) were cultured in McCoy’s 5A modified media (Thermo Fisher Scientific, Waltham, MA, USA) supplemented with 10% fetal bovine serum (Thermo Fisher Scientific, Waltham, MA, USA) and transfected with 1 μg of pCep4βCasp6p20p10 mixed with 8 μg of polyethyleneimine (Polysciences Inc., Warrington, PA, USA). Protein expression was allowed for 24 h before treating with vehicle (PBS), 100 μM NWL-117, or 100 μM NWL-154 for 2 h. For NWL inhibitor kinetic experiments, 100 μM of NWL-117 or NWL-154 was added at 120, 90, 60, 30, 15, or 0 min before harvest. […] For recovery time course experiments, after the initial treatment with 100 μM of NWL-117 or −154 for 2 h, the media was replaced with fresh media for 120, 90, 60, 30, 15, or 0 min before harvest. Primary Human CNS neurons: Cortical tissues were obtained from the Birth Defects Research Laboratory (BDRL, University of Washington, Seattle, USA) in accordance with NIH ethical guidelines approved by McGill University’s institutional review board and primary neurons cultured as previously described. Primary human neurons were seeded on poly-L-lysine-coated (5 μg/mL) 6-well plates or glass coverslips coated with poly-L-lysine and laminin (5 μg/mL) (Sigma-Aldrich, Oakville, ON, CA) at a density of 3x10^6 cells/mL. Primary human neurons were pre-treated with 0.1 μM epoxomicin (Enzo LifeSciences, Farmingdale, NY, USA) and 100 μM NWL-117, 100 μM NWL-154, or vehicle (PBS) for 2 h, and serum-deprived for 2 h in the presence of epoxomicin and vehicle (PBS), 100 μM NWL-117, or 100 μM NWL-154 before harvesting or measuring caspase activity with FLICA, as described below.
Recombinant or extracted cellular Casp6 activity: Casp6 activity was assessed by in vitro fluorogenic assays using Ac-Val-Glu-Ile-Asp-(7-Amino-4-trifluoromethylcouramin) (Ac-VEID-AFC: Enzo LifeSciences, NY, USA) as the Casp6 substrate. The activity was measured in Stennicke’s buffer (SB) (20 mM piperazine-N, N-bis (2-ethanesulfonic acid) (PIPES: BioShop Canada Inc, Burlington, Ontario, CA) pH 7.2, 30 mM NaCl, 1 mM ethylenediaminetetraacetic acid (EDTA), 0.1% 3-[(3-cholamidopropyl)-dimethylammonio]-2-hydroxy-1-propanesulfonic acid (CHAPS), 10% sucrose). The reaction mix consisted of either 20 nM RCasp6 or 20–30 μg cellular protein extracts, SB, 10 mM DTT, 10 μM VEID-AFC substrate and deionized water. The activity was measured in a black clear bottom 96-well plate (Costar, Corning, NY, USA) at 50 μL/well in triplicate at 37 °C in the Synergy H4 plate reader (BioTek) at excitation 380 nm and emission 505 nm every two minutes for 100 min. Fluorescence units were converted to the moles of AFC released based on a standard curve of 0–625 picomoles of free AFC. Cleavage rates were calculated from the linear phase of the assay. The activity is considered on a percentage scale where no inhibitor present is equated to 100% activity of the enzyme. Cellular Casp6 activity assay by FLICA: Active Casp6 was labeled within primary human neurons using the fluorescent inhibitor of Casp6 (FLICA) (FAM-VEID-fmk, ImmunoChemistry, Bloomington, MN, USA) following the manufacturer’s protocol. Briefly, FLICA reagent and Hoechst 33342 were added to a black clear bottom 96-well plate containing 100,000 of the treated-primary human neurons for 2 h at 37 °C in 5% CO2. The cells were rinsed twice with wash buffer and fresh media was added to the cells. The fluorescence of FAM-VEID-fmk was measured at 490 nm excitation and 520 nm emission with bandwidth reduced to 8 nm in the Synergy H4 plate reader (BioTek). The Hoechst signal was measured by excitation at 360 nm and emission at 485 nm.
The half-maximal inhibitory concentrations (IC50) for NWL inhibitors (Patent publication # WO/2009/140765, WO/2010/133000, and WO/2012/140500) was determined by incubating 0 to 20 μM NWL-117 and NWL-154 with 20 nM of active site-titrated Casp6 in SB at room temperature for 5 minutes. […]

SMILES: CCC(C)[C@H](NC(=O)[C@H](CCC(=O)O)NC(=O)[C@@H](NC(=O)OCc1ccccc1)C(C)C)C(=O)N[C@H](/C=C/S(C)(=O)=O)CC(=O)O (stereo partly shown) [NWL-117]
- Casp6 activity rise within 15 min of inhibitor removal: 43%
- decrease of Casp6 VEIDase activity within 15 min of treatment: 88%
- decrease of Casp6 activity: 80%
- activity at 100 µM: 85%
- IC50: 4.82 µM

SMILES: CCC(C)[C@H](NC(=O)[C@H](CCC(=O)O)NC(=O)[C@@H](NC(=O)OCc1ccccc1)C(C)C)C(=O)N[C@H](/C=C(\Cl)S(C)(=O)=O)CC(=O)O (stereo partly shown) [NWL-154]
- Casp6 activity rise within 15 min of inhibitor removal: 21%
- decrease of Casp6 VEIDase activity within 15 min of treatment: 95%
- decrease of Casp6 activity: 96%
- activity at 100 µM: 30%
- IC50: 3.63 µM
